# Structures can show the parent of a compound that is named as a salt.
# What was measured:
# [1] = tested on: SH-SY5Y neuroblastoma cells; experiment: MTT cell viability assay, Aβ(25–35)-induced neurotoxicity; assay type: cell-based; conditions: Aβ(25–35) 25 μM
# Experimental: Cells were cultured in MEM supplemented with 10% heat-inactivated defined FBS, and an antibiotic mixture of 100 units/mL of penicillin and 100 μg/mL streptomycin, and grown at 37 °C in a humid atmosphere with 5% CO2.
# Following the treatment, cell viability was assessed using MTT reduction assay. After adding 10 μL/well of MTT (5 mg/L) and incubating for 4 h, the supernatants were removed and 100 μL of DMSO was added in wells. After 1 h incubation at room temperature in the microshaker, the absorbance of the sample was measured by the microplate spectrophotometer reader (Molecular Devices, Sunnyvale, CA, USA) at 570 nm. The cell viability rate (%) was calculated as the absorbance of treated cells divided by that of control cells. The viability of the control cells was defined as 100%. Three independent experiments were performed in triplicate.
# [2] = rat, in vivo, po; cited from earlier work
Compound,reduction of cell viability compared to vehicle treatment [1] [%],donepezil excreted into urine [2] [%]
"Aβ(25–35): β-amyloid fragment used to induce neurotoxicity in SH-SY5Y cells (GSNKGAIIGLM; Amyloid-beta protein 42; UniProt P05067 696-706, looked up, fragment)",36.0,–
"COc1cc2c(cc1OC)C(=O)C(CC1CCN(Cc3ccccc3)CC1)C2 (centres unmarked) [DNP, Donepezil hydrochloride]",–,1.52
